Assay results published in patent publication US6437138B1, “3-pyridyloxymethyl heterocyclic ether compounds useful in controlling chemical synaptic transmission” (priority 1996, dated 2002).

Key:
[1] = target: neuronal nicotinic cholinergic channel receptors (Rattus norvegicus, UniProt P09483+P12390); conditions: displacement of [3H]-cytisine (1.25 nM), whole rat brain membranes; Ki from IC50 by Cheng and Prusoff correction; read-out: Binding Ki
Procedure: A. Protocol For Determination of Nicotinic Cholinergic Channel Receptor Binding Potencies of Ligands
Binding of [^3H]-cytisine ([^3H]-CYT) to nicotinic receptors was accomplished using crude synaptic membrane preparations from whole rat brain (Pabreza et al., Molecular Pharmacol, 1990, 39:9). Washed membranes were stored at −80° C. prior to use. Frozen aliquots were slowly thawed and resuspended in 20 volumes of buffer (containing: 120 mM NaCl, 5 mM KCl, 2 mM MgCl2, 2 mM CaCl2 and 50 mM Tris-Cl, pH 7.4 @ 4° C.). After centrifuging at 20,000×g for 15 minutes, the pellets were resuspended in 30 volumes of buffer. Homogenate (containing 125-150 μg protein) was added to triplicate tubes containing concentrations of test compound and [^3H]-CYT (1.25 nM) in a final volume of 500 μL. Samples were incubated for 60 minutes at 4° C., then rapidly filtered through Whatman GF/B filters presoaked in 0.5% polyethyleneimine using 3×4 mL of ice-cold buffer. The filters are counted in 4 mL of Ecolume® (ICN). Nonspecific binding was determined in the presence of […] (−)-nicotine and values were expressed as a percentage of total binding.

[2] = target: neuronal nicotinic cholinergic channels in IMR-32 cells (Homo sapiens, UniProt P30926+P32297); test: 86Rb+ efflux in IMR-32 cells (activation, or inhibition of efflux elicited by (S)-nicotine); type: cell-based; conditions: IMR-32, inhibition of the efflux elicited by 100 μM (S)-nicotine; for inhibition at 1 µM: single dose 1 μM; for inhibition at 10 µM: single dose 10 μM
Text: For the purpose of directly evaluating the ability of test compounds to functionally activate or inhibit certain subtypes of neuronal nicotinic cholinergic channels, an assay to determine ^86Rb^+Efflux in IMR-32 cells was employed (Protocol B below).
B. Protocols for the Determination of Functional Effects of Cholinerzic Channel Receptor Ligands on Synaptic Transmission
Cells of the IMR-32 human neuroblastoma clonal cell line (ATCC, Rockville, Md.) were maintained in a log phase of growth according to established procedures (Lukas, 1993). Experimental cells were seeded at a density of 500,000 cells/ml into a 24-well tissue culture dish. Plated cells were allowed to proliferate for at least 48 hours before loading with 2 μCi/ml of ^86Rb^+ (35 Ci/mmol) overnight at 37° C. The ^86Rb^+ efflux assays were performed according to previously published protocols (Lukas, R. J., J. Pharmacol. Exp. Ther., 265: 294-302, 1993) except serum-free Dulbecco's Modified Eagle's Medium was used during the ^86Rb^+ loading, rinsing, and agonist-induced efflux steps.
EC50 data and maximal responses (reported as percent relative to the response elicited by 100 μM (S)-nicotine) are shown for selected compounds of the invention. The inhibition data (given for a larger number of compounds) reflect inhibition of the efflux elicited by 100 μM (S)-nicotine for either a single dose (% inhibition at 1 μM or at 10 μM) or over a range of doses (IC50 of inhibition). […] This finding is in agreement with the results of others who have linked dopamine release, which is dependent upon the ion flux in synaptic transmission, to binding at nicotinic receptors (cf., for example, Lippiello and Caldwell, U.S. Pat. No. 5,242,935, issued Sep. 7, 1993; Caldwell and Lippiello, U.S. Pat. No. 5,248,690, issued Sep. 28, 1993; and Wonnacott et al., Prog. Brain Res., 79: 157-163 (1989)).

Chain of neuronal nicotinic cholinergic channel receptors (P09483 31-630): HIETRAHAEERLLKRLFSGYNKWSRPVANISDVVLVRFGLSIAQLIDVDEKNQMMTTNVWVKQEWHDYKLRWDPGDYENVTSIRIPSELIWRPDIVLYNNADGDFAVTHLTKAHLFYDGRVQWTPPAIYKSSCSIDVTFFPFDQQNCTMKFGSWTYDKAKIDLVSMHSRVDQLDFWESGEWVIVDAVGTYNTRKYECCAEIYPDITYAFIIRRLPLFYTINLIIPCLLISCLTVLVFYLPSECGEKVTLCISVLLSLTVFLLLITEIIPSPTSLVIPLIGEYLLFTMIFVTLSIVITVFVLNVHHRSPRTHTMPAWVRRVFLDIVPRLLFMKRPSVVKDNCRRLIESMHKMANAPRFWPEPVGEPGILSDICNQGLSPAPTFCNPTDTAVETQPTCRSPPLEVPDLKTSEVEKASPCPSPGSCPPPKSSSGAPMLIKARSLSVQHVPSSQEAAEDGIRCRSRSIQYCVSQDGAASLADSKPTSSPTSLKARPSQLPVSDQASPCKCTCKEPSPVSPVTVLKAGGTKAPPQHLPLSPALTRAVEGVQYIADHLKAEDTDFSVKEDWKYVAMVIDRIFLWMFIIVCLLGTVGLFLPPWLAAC
Chain of neuronal nicotinic cholinergic channel receptors (P12390 25-500): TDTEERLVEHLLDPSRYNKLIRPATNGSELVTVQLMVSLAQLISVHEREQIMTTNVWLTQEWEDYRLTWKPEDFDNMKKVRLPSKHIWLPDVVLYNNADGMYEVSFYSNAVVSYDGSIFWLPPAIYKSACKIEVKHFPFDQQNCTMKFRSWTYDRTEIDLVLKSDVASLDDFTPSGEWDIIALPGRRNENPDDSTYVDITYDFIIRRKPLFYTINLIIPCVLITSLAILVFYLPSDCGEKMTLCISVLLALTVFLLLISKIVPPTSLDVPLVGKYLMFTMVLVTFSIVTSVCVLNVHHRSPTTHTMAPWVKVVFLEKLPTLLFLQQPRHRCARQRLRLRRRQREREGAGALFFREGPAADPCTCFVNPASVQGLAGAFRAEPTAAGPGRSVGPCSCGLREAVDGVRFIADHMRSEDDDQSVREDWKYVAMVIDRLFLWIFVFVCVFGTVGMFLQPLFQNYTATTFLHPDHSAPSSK

Row | SMILES | Ki [1] [nM] | inhibition at 1 µM [2] [%] | melting point [°C] | inhibition at 10 µM [2] [%]
1 | CN1CCC[C@H]1COc1cncc(-c2cc3ccccc3n2C)c1.Cl [Example 36, 5-(1-Methyl-2-indolyl)-3-(1-methyl-2-(S)-pyrrolidinylmethoxy)pyridine Hydrochloride] | 0.32 | 28 | 195 to 197 | 
2 | CN1CCC[C@H]1COc1cncc(-c2ccc(Cl)cc2)c1.Cl.Cl [Example 38, 5-(4-Chlorophenyl)-3-(1-methyl-2-(S)-pyrrolidinylmethoxy)pyridine Dihydrochloride] | 0.082 | 29 | 224 to 226 | 100
3 | CN1CCC[C@H]1COc1cncc(-c2ccc(Cl)cc2Cl)c1.Cl.Cl [Example 39, 5-(2,4-Dichlorophenyl)-3-(1-methyl-2-(S)-pyrrolidinylmethoxy)pyridine Dihydrochloride] | 0.16 | 52 | 176 to 178 | 
4 | CN1CCC[C@H]1COc1cncc(C#Cc2ccccc2)c1.Cl.Cl [Example 40, 5-(2-Phenylethynyl)-3-(1-methyl-2-(S)-pyrrolidinylmethoxy)pyridine Dihydrochloride] | 0.16 | 30 | 190 to 192 | 100
5 | Cc1ccc(-c2cncc(OC[C@@H]3CCCN3C)c2)cc1.Cl.Cl [Example 41, 5-(4-Methylphenyl)-3-(1-methyl-2-(S)-pyrrolidinylmethoxy)pyridine Dihydrochloride] | 0.13 | 41 | 204 to 206 | 100
6 | CN1CCC[C@H]1COc1cncc(-c2cccc(N)c2)c1.Cl.Cl [Example 43, 5-(3-Aminophenyl)-3-(1-methyl-2-(S)-pyrrolidinylmethoxy)pyridine Dihydrochloride] | 0.43 | 36 | 80 to 82 | 
